Assay [1] concerns the target T1, human A2AAR (Homo sapiens, UniProt P29274).
T1 construct: expressed in transfected cells; host or cells: HEK293 cells stably expressing the human A2AAR
Briefly: [^3H]ZM241385 radioligand binding, HEK293 membranes. To be noted: for Ki: WT receptor, 1 nM [^3H]ZM241385, membranes, 25 °C, 60 min. Here is the method: (§1) HEK293 cells expressing the human A2AAR were cultured in DMEM supplemented with 10% fetal bovine serum, 100 Units/mL penicillin, 100 µg/mL streptomycin and 2 µmol/mL glutamine. To prepare cell membranes, cells were detached from plates by scraping into PBS and centrifuged at 250× g for 5 min. The resulting pellets were re-suspended in ice-cold Tris-HCl buffer (50 mM, pH 7.4) and homogenized. After homogenization and suspension, cells were first centrifuged at 1000× g for 10 min and the pellet was discarded. The suspension was then re-centrifuged at 20,000× g for 60 min at 4 °C. The pellets were re-suspended, split into aliquots and stored at −80 °C. The protein concentration was measured using the Bradford assay.
(§2) Radioligand binding assays were performed using membranes prepared from HEK293 cells expressing human the A2AAR using both agonist and antagonist radioligands as previously described. […] (5 nM) or [^3H]ZM241385 (1 nM) and membrane preparations (20 μg protein) at 25 °C for 60 min in a total of 200 μL of Tris-HCl buffer (50 mM, pH 7.5) containing 10 mM MgCl2. […] Binding reactions were terminated by filtration through Whatman GF/B filters under reduced pressure using an MT-24 cell harvester (Brandell, Gaithersburg, MD, USA) followed by washing twice with 5 mL of cold Tris-HCl buffer.
(§3) Functional parameters were calculated using Prism 8.1.0 software (GraphPAD, San Diego, CA, USA). Data were expressed as mean ± standard error. Data were analyzed by analysis of variance (ANOVA) followed by post hoc analysis to check the statistical difference among groups with p < 0.05 being considered significant.

The target in assay [2] is T1, human A2AAR. Briefly: cAMP accumulation assay, antagonism of CGS21680 with Schild analysis. In kind it is cell-based. To be noted: for Kb / Functional Antagonism Slope (Schild): Schild analysis, CGS21680-induced cAMP; for Kb: antagonist pretreatment 20 min, read-out: Functional Antagonism KB; for Functional Antagonism Slope (Schild): linear part of plot only for XAC630, MRS7396, HMA; for Pattern of A2AAR antagonism: from functional antagonism and Schild analysis. Here is the method: HEK293 cells stably expressing the human A2AAR were seeded in 96-well plates and incubated in 100 µL medium at 37 °C overnight. The medium was removed the following day and cells were then treated with assay buffer containing rolipram (10 μM) and antagonists for 20 min followed by the addition of agonists, and then incubated for 20 min. The reaction was terminated upon removal of the supernatant and addition of 100 µL Tween-20 (0.3%). Intracellular 3′,5′-cyclic adenosine monophosphate (cAMP) levels were measured with an ALPHAScreen cAMP assay kit as instructed by the manufacturer (PerkinElmer, Boston, MA, USA).
as §3
To examine and analyze mechanistically the patterns of functional antagonism by various antagonists of different chemical entities, cells expressing relatively low A2AAR levels with minimal signaling amplification were used, as recommended, since receptor overexpression is related to the constitutive activity, and signaling amplification has been linked to changing the patterns of antagonism.
For orientation: Cyclic AMP is a second messenger, typically raised through Gs and lowered through Gi signalling.

Assay [3] addresses T1, human A2AAR. Briefly: Fluorescent ligand MRS7416 binding to intact HEK293 cells (flow cytometry). To be noted: for Ki: displacement of 15 nM fluorescent MRS7416, intact cells, 37 °C, 60 min; for Times weaker in displacing MRS7416 binding than radioligand binding: fluorescent versus radioligand Ki. Here is the method:
Cells were plated in 96-well plates and grow overnight. In saturation binding experiments with fluorescent antagonist MRS7416, various concentrations were incubated in cell culture medium with control HEK293 cells or HEK293 cells expressing the A2AAR for 60 min at 37 °C in an atmosphere containing 5% CO2. […] At the end the reaction, the medium was removed, and cells were washed twice with PBS. After washing, 0.2 mL 0.1% EDTA solution was added to each well, and cells were incubated at 37 °C for 10 min. Following cell detachment and mixing of cells, the intensity of fluorescence emission of each sample was measured by using flow cytometry as previously described. […] Samples were maintained in the dark during the analysis to avoid photobleaching. Mean fluorescence intensity (MFI) was determined in the FL-1 channel in log mode. Ten thousand events were analyzed per sample. Data were collected using Cell Quest Pro software (BD, Franklin Lakes, NJ, USA) and analyzed by Cyflogic v. 1.2.1 software (CyFlo, Ltd., Turku, Finland).
In general terms: Flow cytometry measures light scatter and fluorescence of single cells or particles in a stream.

Assay [4] deals with T1, human A2AAR. Briefly: [^3H]CGS21680 radioligand binding, HEK293 membranes. To be noted: for Ki: 5 nM [^3H]CGS21680, membranes, 25 °C, 60 min; for [^3H]CGS21680 binding, percent effect of the fluorophore amide alone: at a concentration of 10 µM. Here is the method: as §1, §2, §3
A further assay deals with T2, D52N mutant A2AAR (Homo sapiens, UniProt P29274, D52N).
T2 construct: expressed in transfected cells; host or cells: HEK293 cells
Briefly: [^3H]ZM241385 binding to D52N mutant A2AAR expressed in HEK293 cells. To be noted: for Ki: 1 nM [^3H]ZM241385. On the procedure: as §2
Here we examined if HMA and MRS7396 behave in a similar manner or not.
Data were from three independent experiments performed in duplicate.

In another assay the test system is A2AAR D52A mutation. On the set-up: method as in Massink et al. [10],[11]. To be noted: ref Massink et al. [10],[11]; cited from earlier work.

Structures are written as SMILES.

T2 sequence (P29274 whole entry D52N): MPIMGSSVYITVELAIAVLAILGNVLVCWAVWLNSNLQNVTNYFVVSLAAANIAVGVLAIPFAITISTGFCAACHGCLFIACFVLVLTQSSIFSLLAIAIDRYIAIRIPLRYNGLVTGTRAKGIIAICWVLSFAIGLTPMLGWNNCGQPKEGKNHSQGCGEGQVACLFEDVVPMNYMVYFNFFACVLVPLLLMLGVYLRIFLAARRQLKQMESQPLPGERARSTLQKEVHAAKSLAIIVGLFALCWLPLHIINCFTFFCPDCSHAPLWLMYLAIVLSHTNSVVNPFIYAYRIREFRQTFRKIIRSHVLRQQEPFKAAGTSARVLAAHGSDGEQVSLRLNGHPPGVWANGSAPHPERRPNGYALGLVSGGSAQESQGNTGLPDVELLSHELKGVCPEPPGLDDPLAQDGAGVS
T1 sequence (P29274 whole entry): as the sequence (P29274 whole entry D52N) above, with N52D counted along it

With `Nc1nc2c(cnn2CCCc2ccc(OCc3ccc(S(=O)(=O)O)cc3)cc2)c2nc(-c3ccco3)nn12` [MRS7352], the Ki was 6.24 ± 2.42 nM at human A2AAR [1], 5.28 ± 1.31 nM at human A2AAR [3] and 4.98 ± 1.13 nM at human A2AAR [4]. Besides, the Kb at human A2AAR [2] is 0.00661 ± 0.00088 µM. On human A2AAR [2], the “Functional Antagonism Slope (Schild)” value was determined as 0.88 ± 0.06.

Compound `N=c1ccc2c(-c3ccc(C(=O)NCCCCNC(=O)COc4ccc(CCCn5ncc6c5nc(N)n5nc(-c7ccco7)nc65)cc4)cc3C(=O)O)c3ccc(N)c(S(=O)(=O)O)c3oc-2c1S(=O)(=O)O` [MRS7416] displayed a Ki at human A2AAR [1] of 23.8 ± 5.6 nM. On human A2AAR [2], the Kb was 0.00911 ± 0.00177 µM, the “Functional Antagonism Slope (Schild)” value worked out at 0.68 ± 0.03 and the “Pattern of A2AAR antagonism” value was “allosteric A2AAR antagonists”. In addition, the Kd at human A2AAR [3] (saturation binding, intact cells, n = 6, read-out: Kd value from MRS7416 saturation experiments) stood at 0.0176 ± 0.0041 µM. For the same compound, the Ki on human A2AAR [4] was 16.4 ± 1.6 nM.

As for `CCCn1c(=O)c2[nH]c(-c3ccc(OCC(=O)NCCNC(=O)CCNC(=O)CCCCNC(=O)CCCCCN)cc3)nc2n(CCC)c1=O` [XAC245], the affinity on human A2AAR [1], expressed as Ki, was 198 ± 33 nM. At human A2AAR [2], the Kb came to 0.28 ± 0.033 µM, the “Functional Antagonism Slope (Schild)” value is 0.68 ± 0.04 and the “Pattern of A2AAR antagonism” value is “allosteric A2AAR antagonists”. Moreover, the Ki on human A2AAR [3] came to 152 ± 29 nM. Also, the Ki at human A2AAR [4] was 220 ± 36 nM.

`CCCn1c(=O)c2[nH]c(-c3ccc(OCC(=O)NCCNC(=O)CCCCCNC(=O)COc4ccc(/C=C/C5=[N+]6C(=Cc7ccc(-c8cccs8)n7[B-]6(F)F)C=C5)cc4)cc3)nc2n(CCC)c1=O` [XAC630, reference compound] yielded a Ki at human A2AAR [1] of 36.6 ± 10.1 nM. Moreover, at human A2AAR [2], the Kb is 0.0511 ± 0.0122 µM, the “Functional Antagonism Slope (Schild)” value is 0.47 ± 0.04 and the “Pattern of A2AAR antagonism” value was “allosteric A2AAR antagonists”. For the same compound, at human A2AAR [3], affinity was put at a Ki of 692 ± 173 nM and the “Times weaker in displacing MRS7416 binding than radioligand binding” value (from here on “Times weaker”) is given as 9–100 times. At human A2AAR [4], this compound displayed a Ki of 29 ± 5.7 nM.

`CCCn1c(=O)c2[nH]c(-c3ccc(OCC(=O)NCCNC(=O)CCNC(=O)CCCCNC(=O)CCCCCNC(=O)c4ccc(-c5c6ccc(=N)c(S(=O)(=O)O)c-6oc6c(S(=O)(=O)O)c(N)ccc56)c(C(=O)O)c4)cc3)nc2n(CCC)c1=O` [XAC488] yielded a Ki at human A2AAR [1] of 388 ± 62 nM. Also, on human A2AAR [2], the Kb was determined as 0.65 ± 0.12 µM, the “Functional Antagonism Slope (Schild)” value is 1.03 ± 0.05 and the “Pattern of A2AAR antagonism” value is “antagonized competitively”. Also, the Ki on human A2AAR [4] turned out to be 438 ± 110 nM.

Turning to `N=c1ccc2c(-c3ccc(C(N)=O)cc3C(=O)O)c3ccc(N)c(S(=O)(=O)O)c3oc-2c1S(=O)(=O)O` [AF488-amide], on human A2AAR [4], the “[^3H]CGS21680 binding, percent effect of the fluorophore amide alone” value is recorded as 3.7 ± 1.2%.

`Nc1nc2c(cnn2CCCc2ccc(OCC(=O)NCCCCNC(=O)CCCCCNC(=O)COc3ccc(/C=C/C4=[N+]5C(=Cc6ccc(-c7cccs7)n6[B-]5(F)F)C=C4)cc3)cc2)c2nc(-c3ccco3)nn12` [MRS7396] registered a Ki at human A2AAR [1] of 2.34 ± 0.33 nM. For the same compound, on human A2AAR [1] (radioligand binding), the “Fold more potent in binding in comparison to MRS7416” value worked out at 10 fold. Also, at human A2AAR [2], the Kb turned out to be 0.0017 ± 0.00034 µM, the “Functional Antagonism Slope (Schild)” value turned out to be 0.42 ± 0.02 and the “Pattern of A2AAR antagonism” value is “allosteric A2AAR antagonists”. In addition, the affinity on D52N mutant A2AAR corresponds to a Ki of 0.00079 ± 0.00023 µM. The “Fold weaker at WT than at the D52N mutant receptor” value at D52N mutant A2AAR ([^3H]ZM241385 binding) is on record as ~ 3 fold. On human A2AAR [3], the Ki came out at 256 ± 33 nM and the “Times weaker” value is recorded as 9–100 times. Also, the Ki on human A2AAR [4] came to 2.83 ± 0.2 nM.

On to `NC(N)=NC(=O)c1nc(Cl)c(N2CCCCCC2)nc1N` [HMA, 5-(N,N-hexamethylene)amiloride, reference compound], for which the Ki at human A2AAR [1] was 3050 ± 1210 nM; at D52N mutant A2AAR, 15.8 µM; at human A2AAR [3] it was 18500 ± 2800 nM; at human A2AAR [4] it was 2120 ± 510 nM. Moreover, on human A2AAR [2], the Kb came to 3.81 ± 0.45 µM. The “Functional Antagonism Slope (Schild)” value on human A2AAR [2] is on record as 0.59 ± 0.05. For the same compound, on D52N mutant A2AAR ([^3H]ZM241385 binding), the “Fold affinity decrease at D52N versus WT” value is given as 5 fold. For the same compound, the “Fold decrease of affinity by D52A mutation” value in the assay on A2AAR D52A mutation was “over 10 fold”. The “Times weaker” value on human A2AAR [3] is on record as 9–100 times.

For `N#Cc1c(N)nc(SCc2ncc[nH]2)c(C#N)c1-c1ccc(O)cc1` [LUF5834, 2-amino-4-(4-hydroxyphenyl)-6-[(1H-imidazol-2-ylmethyl)thio]-3,5-pyridinecarbonitrile, reference compound], the Ki at human A2AAR [1] stood at 13.3 ± 6.5 nM; on human A2AAR [3] it was 23 ± 4.6 nM.

With `NC(=O)CCCCCNC(=O)COc1ccc(/C=C/C2=[N+]3C(=Cc4ccc(-c5cccs5)n4[B-]3(F)F)C=C2)cc1` [BY630-amide], the “[^3H]CGS21680 binding, percent effect of the fluorophore amide alone” value at human A2AAR [4] came to 2.6 ± 1.5%.

By Ki is commonly meant a measure of affinity in units of concentration, obtained from inhibition or displacement. A high value points to a looser hold on the target. One may read the Kb as the affinity of an antagonist, worked out from how it opposes an agonist.

Values taken from publication PMC7290864, “Allosteric Antagonism of the A2A Adenosine Receptor by a Series of Bitopic Ligands” (Cells, 2020).
